Measured values as given in ChEMBL document CHEMBL6071207, “In Vivo-Active Soluble Epoxide Hydrolase-Targeting PROTACs with Improved Potency and Stability” (ACS Med Chem Lett, 2024).
One block for each compound: values may come before it. Active and inactive are the calls of the source. The calls are words filed in the database; no cut-off is given here.

Experiments:
[1] = biological target: T1, Bifunctional epoxide hydrolase 2 (Mus musculus, UniProt P34914); assay: Inhibition of mouse recombinant sEH using fluorogenic substrate
T1 sequence (P34914 whole entry): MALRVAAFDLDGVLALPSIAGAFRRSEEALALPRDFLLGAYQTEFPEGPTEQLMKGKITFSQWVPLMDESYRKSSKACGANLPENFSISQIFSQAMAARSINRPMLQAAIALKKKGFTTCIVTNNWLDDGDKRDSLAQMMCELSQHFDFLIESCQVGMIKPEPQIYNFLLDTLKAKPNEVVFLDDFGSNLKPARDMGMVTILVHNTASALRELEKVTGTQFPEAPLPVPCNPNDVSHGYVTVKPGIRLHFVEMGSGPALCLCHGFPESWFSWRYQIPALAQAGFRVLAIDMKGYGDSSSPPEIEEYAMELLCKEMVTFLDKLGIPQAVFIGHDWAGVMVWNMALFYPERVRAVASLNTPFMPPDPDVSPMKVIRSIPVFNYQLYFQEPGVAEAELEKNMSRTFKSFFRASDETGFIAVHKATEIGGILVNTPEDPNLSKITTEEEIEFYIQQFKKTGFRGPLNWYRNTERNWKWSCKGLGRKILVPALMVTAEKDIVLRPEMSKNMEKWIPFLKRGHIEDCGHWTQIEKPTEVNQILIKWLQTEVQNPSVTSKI

HepG2 = assay: Cytotoxicity against human HepG2 cells assessed as cell viability at 1 uM incubated for 24 hrs by MTT assay; settings: HepG2, 24 h, read-out: Activity
HEK293T = assay: Inhibition of IRE1alpha phosphorylation in HEK293T cells at 100 nM pretreated with compound for 12 hrs followed by thapsigargin addition and measured after 24 hrs by immunoblotting analysis; format: cell-based; settings: Homo sapiens, time 36.0 hrs
[2] = biological target: T2, Eukaryotic translation initiation factor 2-alpha kinase 3 (Homo sapiens) (UniProt Q9NZJ5); assay: Inhibition of PERK phosphorylation in HEK293T cells at 100 nM pretreated with compound for 12 hrs followed by thapsigargin addition and measured after 24 hrs by immunoblotting analysis; format: cell-based; settings: time 36.0 hrs
T2 sequence (whole entry): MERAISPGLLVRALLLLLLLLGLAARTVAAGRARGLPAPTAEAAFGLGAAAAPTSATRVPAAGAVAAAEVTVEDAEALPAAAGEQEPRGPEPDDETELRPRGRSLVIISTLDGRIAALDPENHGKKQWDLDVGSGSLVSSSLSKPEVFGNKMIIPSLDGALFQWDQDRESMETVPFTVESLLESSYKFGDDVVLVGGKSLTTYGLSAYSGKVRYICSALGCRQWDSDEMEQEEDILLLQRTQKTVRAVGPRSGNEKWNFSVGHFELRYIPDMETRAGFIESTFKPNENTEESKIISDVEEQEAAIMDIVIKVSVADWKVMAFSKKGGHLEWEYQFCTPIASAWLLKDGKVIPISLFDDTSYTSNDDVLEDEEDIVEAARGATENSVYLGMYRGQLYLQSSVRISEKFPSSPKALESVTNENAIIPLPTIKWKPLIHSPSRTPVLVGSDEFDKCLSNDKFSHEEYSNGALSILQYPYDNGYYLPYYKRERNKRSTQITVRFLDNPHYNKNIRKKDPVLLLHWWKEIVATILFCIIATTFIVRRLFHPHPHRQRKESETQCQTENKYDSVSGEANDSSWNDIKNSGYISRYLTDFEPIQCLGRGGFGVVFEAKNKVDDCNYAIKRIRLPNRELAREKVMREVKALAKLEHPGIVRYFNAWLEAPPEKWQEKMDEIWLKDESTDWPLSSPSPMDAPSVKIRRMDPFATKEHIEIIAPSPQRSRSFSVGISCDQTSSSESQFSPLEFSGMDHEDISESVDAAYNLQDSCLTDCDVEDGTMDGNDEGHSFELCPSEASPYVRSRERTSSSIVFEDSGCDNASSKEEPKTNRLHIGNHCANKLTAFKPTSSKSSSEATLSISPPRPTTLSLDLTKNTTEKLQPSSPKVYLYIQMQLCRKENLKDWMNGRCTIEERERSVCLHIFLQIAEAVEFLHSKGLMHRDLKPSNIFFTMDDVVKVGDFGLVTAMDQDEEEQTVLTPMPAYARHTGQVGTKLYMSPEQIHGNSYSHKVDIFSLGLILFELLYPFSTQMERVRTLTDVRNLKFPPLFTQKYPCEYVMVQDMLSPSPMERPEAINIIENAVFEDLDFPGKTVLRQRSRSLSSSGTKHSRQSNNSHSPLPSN

[3] = biological target: Eukaryotic translation initiation factor 2 subunit 1 (Homo sapiens) (UniProt P05198); assay: Inhibition of eIF2alpha phosphorylation in HEK293T cells at 100 nM pretreated with compound for 12 hrs followed by thapsigargin addition and measured after 24 hrs by immunoblotting analysis; format: cell-based; settings: time 36.0 hrs
Chain of Eukaryotic translation initiation factor 2 subunit 1 (Homo sapiens) (P05198 whole entry): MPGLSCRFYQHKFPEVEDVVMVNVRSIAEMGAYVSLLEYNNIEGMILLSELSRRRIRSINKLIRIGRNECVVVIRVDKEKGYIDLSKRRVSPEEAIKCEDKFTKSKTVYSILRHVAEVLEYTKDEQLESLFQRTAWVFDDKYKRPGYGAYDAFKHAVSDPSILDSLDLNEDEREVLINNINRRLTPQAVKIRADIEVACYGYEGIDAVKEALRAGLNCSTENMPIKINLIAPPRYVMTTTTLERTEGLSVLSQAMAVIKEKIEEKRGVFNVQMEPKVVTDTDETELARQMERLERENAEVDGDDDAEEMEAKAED

[4] = Chemical stability of compound in cell culture medium assessed as parent compound remaining measured for 24 hrs by LC-MS analysis; format: physicochemical; settings: read-out: Stability
[5] = Half life in male CD-1 mouse at 10 mg/kg, ip measured up to 24 hrs by LC-MS/MS analysis; format: ADME, organism-based; settings: in vivo
[6] = Tmax in male CD-1 mouse at 10 mg/kg, ip measured up to 24 hrs by LC-MS/MS analysis; format: ADME, organism-based; settings: in vivo
[7] = Cmax in male CD-1 mouse at 10 mg/kg, ip measured up to 24 hrs by LC-MS/MS analysis; format: ADME, organism-based; settings: in vivo
[8] = AUC (0 to infinity) in male CD-1 mouse at 10 mg/kg, ip measured up to 24 hrs by LC-MS/MS analysis; format: ADME, organism-based; settings: in vivo
[9] = MRT (0 to infinity) in male CD-1 mouse at 10 mg/kg, ip measured up to 24 hrs by LC-MS/MS analysis; format: ADME, organism-based; settings: in vivo
[10] = biological target: Protein cereblon/Bifunctional epoxide hydrolase 2 (Homo sapiens, UniProt P34913+Q96SW2); assay: PROTAC activity at sEH/CRBN in human HepG2 cells assessed as induction of sEH degradation measured for 24 hrs by immunoblot analysis; format: cell-based
Chain of Protein cereblon/Bifunctional epoxide hydrolase 2 (P34913 whole entry): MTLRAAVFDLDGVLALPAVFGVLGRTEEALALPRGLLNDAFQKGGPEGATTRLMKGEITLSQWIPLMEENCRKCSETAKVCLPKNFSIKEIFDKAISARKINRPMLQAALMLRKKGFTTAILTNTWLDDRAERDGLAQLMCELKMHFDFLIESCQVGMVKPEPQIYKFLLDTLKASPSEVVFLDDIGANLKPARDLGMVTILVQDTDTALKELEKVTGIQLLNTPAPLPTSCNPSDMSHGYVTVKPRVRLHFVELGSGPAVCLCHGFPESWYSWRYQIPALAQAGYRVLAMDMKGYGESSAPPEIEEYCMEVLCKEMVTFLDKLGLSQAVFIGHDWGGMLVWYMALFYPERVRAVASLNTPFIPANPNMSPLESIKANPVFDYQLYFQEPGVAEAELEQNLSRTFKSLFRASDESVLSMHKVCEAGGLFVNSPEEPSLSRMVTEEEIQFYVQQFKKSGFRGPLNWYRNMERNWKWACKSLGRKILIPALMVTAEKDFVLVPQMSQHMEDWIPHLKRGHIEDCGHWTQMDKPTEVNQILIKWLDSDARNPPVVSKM
Chain of Protein cereblon/Bifunctional epoxide hydrolase 2 (Q96SW2 whole entry): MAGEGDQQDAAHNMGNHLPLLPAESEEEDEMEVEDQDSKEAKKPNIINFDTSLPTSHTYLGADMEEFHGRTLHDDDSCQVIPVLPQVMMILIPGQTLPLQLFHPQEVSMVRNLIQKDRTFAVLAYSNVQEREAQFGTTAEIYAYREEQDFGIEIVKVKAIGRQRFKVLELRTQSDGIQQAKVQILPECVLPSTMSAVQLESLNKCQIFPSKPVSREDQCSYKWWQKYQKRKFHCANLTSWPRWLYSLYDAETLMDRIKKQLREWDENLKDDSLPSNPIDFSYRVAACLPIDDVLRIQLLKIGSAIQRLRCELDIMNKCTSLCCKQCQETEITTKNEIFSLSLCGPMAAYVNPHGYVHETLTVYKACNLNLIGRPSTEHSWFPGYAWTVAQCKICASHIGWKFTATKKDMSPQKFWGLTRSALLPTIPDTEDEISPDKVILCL

[11] = Chemical stability of compound in cell culture medium assessed as degradation measured after 24 hrs by LC-MS analysis; format: physicochemical; settings: read-out: Drug degradation

IC50 [1]: 10 nM
Compound: Cc1ncsc1-c1ccc(CNC(=O)[C@@H]2C[C@@H](O)CN2C(=O)[C@@H](NC(=O)CCOCCOCCOCCOCCC(=O)N2CCC(NC(=O)Nc3ccc(OC(F)(F)F)cc3)CC2)C(C)(C)C)cc1

Compound: O=C1CCC(N2C(=O)c3cccc(N4CCN(CC5CCN(C(=O)CCCCCCCCNC(=O)c6ccc(O[C@H]7CC[C@H](NC(=O)Nc8ccc(OC(F)(F)F)cc8)CC7)cc6)CC5)CC4)c3C2=O)C(=O)N1 (stereo not given in full)
IC50 [1]: 1.8 nM
viability at 1 µM (HepG2): 24%

inhibition [2]: inactive
inhibition [3]: inactive
Compound: O=C(Nc1ccc(OC(F)(F)F)cc1)N[C@H]1CC[C@H](Oc2ccc(C(=O)O)cc2)CC1
inhibition (HEK293T): inactive

Compound: O=C1CCC(N2C(=O)c3cc(F)c(N4CCN(C(=O)CCCCCCCCNC(=O)c5ccc(O[C@H]6CC[C@H](NC(=O)Nc7ccc(OC(F)(F)F)cc7)CC6)cc5)CC4)cc3C2=O)C(=O)N1 (stereo not given in full)
IC50 [1]: 2.2 nM
viability at 1 µM (HepG2): -6%

Compound: O=C1CCC(N2Cc3cc(N4CCN(C(=O)CCCCCCCCNC(=O)c5ccc(O[C@H]6CC[C@H](NC(=O)Nc7ccc(OC(F)(F)F)cc7)CC6)cc5)CC4)ccc3C2=O)C(=O)N1 (stereo not given in full)
IC50 [1]: 2.8 nM
viability at 1 µM (HepG2): 46%
remaining at 24 h [4]: 57%

Compound: O=C1CCC(N2Cc3ccc(N4CCN(CC5CCN(C(=O)CCCCCCCCNC(=O)c6ccc(O[C@H]7CC[C@H](NC(=O)Nc8ccc(OC(F)(F)F)cc8)CC7)cc6)CC5)CC4)cc3C2=O)C(=O)N1 (stereo not given in full)
IC50 [1]: 4.8 nM
viability at 1 µM (HepG2): 7%
half-life [5]: 7.1 h
Tmax [6]: 0.33 h
Cmax [7]: 3500 ng/mL
AUC(0-inf) [8]: 31000 ng·h/mL
MRT inf [9]: 9.3 h

DC50 [10]: > 1000 nM
degraded at 24 h [11]: ~100%
Compound: O=C(COc1cccc2c1C(=O)N(C1CCC(=O)NC1=O)C2=O)NCCOCCOCCOCCCNC(=O)c1ccc(O[C@H]2CC[C@H](NC(=O)Nc3ccc(OC(F)(F)F)cc3)CC2)cc1 (stereo not given in full)
